From patent US20070249725A1, “Pharmaceutical formulations of sympathetic antagonist for the treatment of chronic muscle pain” (priority 2006, published 2007)
Where a name gives a salt, the structure may show the parent alone.

Experiments:
[1] = Multicenter placebo-controlled dose response study of intramuscular PBZ: safety and tolerance (Example II); assay type: in vivo, human; conditions: most frequent adverse event
[2] = pH of phenoxybenzamine formulations; assay type: physicochemical; conditions: active solutions
Protocol: This was a multicenter, randomized, placebo-controlled, double-blind, dose response study of intramuscular phenoxybenzamine hydrochloride (PBZ) versus vehicle and saline placebos. Phenoxybenzamine formulation known in the art (propylene glycol and alcohol) and diluted in saline at the time of injection were evaluated. […] Patients with pain in the most commonly affected regions, the upper and lower back, were studied. Patients enrolled in this study were male or female with 4 months to 8 years of myofascial pain syndrome with identifiable active trigger points. Patients were required to have had EMG documented triggers points and meet the criteria of <10 uV in the adjacent muscle site and have a minimum of a 2:1 ratio of trigger point amplitude: adjacent amplitude. Attempts were made to obtain maximum amplitude in the trigger point.
For determination of the pH value of the active solutions, a 5% solution of the Phenoxybenzamine HCL measured 3.25. Examples of packaging material include 2-mL vials, Pharmatek Lot No. 0001, Part No. PTC-0001; rubber stoppers, Pharmatek Lot No. 0002, Part No. PTC-0002; Truedge® seals, Pharmatek Lot No. 0003, Part No. PTC-0003; Supor® filters, Pharmatek Lot No. 0005, Part No. PTC-0004; and labels, to be generated by PrimaPharm Inc. These can be supplied in the form of a kit.

CC(COc1ccccc1)N(CCCl)Cc1ccccc1 (centres unmarked) [Phenoxybenzamine Hydrochloride, phenoxybenzamine hydrochloride]
injection site pain, share of all adverse events [1]: 77% | pH of a 5% solution [2]: 3.25
